Here are results for 19 compounds from patent US20250296939A1, “BENZOTHIOPHENE COMPOUND” (Kyoto Pharmaceutical Industries, Ltd., priority 2022, published 2025).

The target of assay [1] is GST-fused human Keap1 (amino acid residues: 325-642) protein (Homo sapiens (Human), UniProt Q14145). Kind of assay: FP assay (in vitro): inhibition of binding between Nrf2 and Keap1 by fluorescence polarization. Conditions: 20 nM GST-fused human Keap1, 10 nM FITC-labeled Nrf2 peptide, 2 hr at room temperature. Background: In fluorescence polarisation assays a small probe gives low polarisation when free and higher when bound to something large.
Sequence of GST-fused human Keap1 (amino acid residues: 325-642) protein (Q14145 325-624 limits assumed): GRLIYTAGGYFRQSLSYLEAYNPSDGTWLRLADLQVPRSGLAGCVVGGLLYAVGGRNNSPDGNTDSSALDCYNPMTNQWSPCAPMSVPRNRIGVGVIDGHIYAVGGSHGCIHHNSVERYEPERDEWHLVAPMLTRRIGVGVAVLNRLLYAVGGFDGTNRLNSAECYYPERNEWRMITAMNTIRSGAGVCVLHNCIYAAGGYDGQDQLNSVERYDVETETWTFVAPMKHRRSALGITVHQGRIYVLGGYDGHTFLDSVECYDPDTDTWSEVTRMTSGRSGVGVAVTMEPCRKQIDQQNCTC

Assay [2] deals with NQO1 activity in Hepa1c1c7 cells. Kind of assay: NAD(P)H: quinone oxidoreductase-1 (NQO1) enzyme induction assay (in vitro). Format: cell-based, mouse. Conditions: Mus musculus, Hepa-1c1c7, NQO1 activity upon addition of 400 nM of test compound, about 48 hr, ratio from the base without the compound. The method in brief:
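Mouse Hepa1c1c7 hepatoma cells were treated with 400 nM compound for about 48 h, then lysed with digitonin/EDTA. NQO1 activity was measured as menadione-mediated MTT reduction with a G6P/G6PDH NADPH-regenerating system, stopped with dicoumarol, and read at A610. Values are the activity ratio versus untreated base wells.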

A word on the IC50: it is the point on the concentration scale where inhibition reaches its midpoint. Higher therefore signals weaker potency. In general, fold induction refers to the ratio of treated to control signal.

`Cc1c([C@@H](CC(=O)O)c2cc(CN3Cc4nc(O)ccc4O[C@H](C(F)(F)F)C3)c3sccc3c2)ccc2c1nnn2C` [Example 38, (3S)-3-(1,4-Dimethyl-1H-benzotriazol-5-yl)-3-(7-{[(2S)-7-hydroxy-2-(trifluoromethyl)-2,3-dihydropyrido[2,3-f][1,4]oxazepin-4(5H)-yl]methyl}-1-benzothiophen-5-yl)propanoic acid] had an IC50 in assay [1] not above 0.01 µM. The fold induction at 0.4 µM in assay [2] is more than 5.
Consider `Cc1c([C@H](CC(=O)O)c2cc(CN3Cc4nc(O)ccc4O[C@@H](C(F)(F)F)C3)c3sccc3c2)ccc2c1nnn2C` [Example 39, (3R)-3-(1,4-Dimethyl-1H-benzotriazol-5-yl)-3-(7-{[(2R)-7-hydroxy-2-(trifluoromethyl)-2,3-dihydropyrido[2,3-f][1,4]oxazepin-4(5H)-yl]methyl}-1-benzothiophen-5-yl)propanoic acid], for which the IC50 in assay [1] lay in the range of 0.3 to 3 µM. Also, in assay [2], the fold induction at 0.4 µM lay within 1.5 to 3.
Take `Cc1c([C@@H](CC(=O)O)c2cc(CN3Cc4nc(O)ccc4O[C@@H](C(F)(F)F)C3)c3sccc3c2)ccc2c1nnn2C` [Example 40, (3S)-3-(1,4-Dimethyl-1H-benzotriazol-5-yl)-3-(7-{[(2R)-7-hydroxy-2-(trifluoromethyl)-2,3-dihydropyrido[2,3-f][1,4]oxazepin-4(5H)-yl]methyl}-1-benzothiophen-5-yl)propanoic acid]: in assay [1], the IC50 lay in the range of 0.3 to 3 µM. Moreover, the fold induction at 0.4 µM in assay [2] was in the range of 1.5 to 3.
For `CC[C@@H]1CN(Cc2cc([C@@H](CC(=O)O)c3cc(OC(F)(F)F)c4c(nnn4C)c3C)cc3ccsc23)Cc2nc(O)ccc2O1` [Example 41, (3R)-3-[1,4-Dimethyl-7-(trifluoromethoxy)-1H-benzotriazol-5-yl]-3-(7-{[(2R)-2-ethyl-7-hydroxy-2,3-dihydropyrido[2,3-f][1,4]oxazepin-4(5H)-yl]methyl}-1-benzothiophen-5-yl)propanoic acid], the IC50 in assay [1] was not above 0.01 µM. Moreover, in assay [2], the fold induction at 0.4 µM was more than 5.
On the same counts, the results for `CC[C@@H]1CN(Cc2cc([C@H](CC(=O)O)c3cc(OC(F)(F)F)c4c(nnn4C)c3C)cc3ccsc23)Cc2nc(O)ccc2O1` [Example 42, (3S)-3-[1,4-Dimethyl-7-(trifluoromethoxy)-1H-benzotriazol-5-yl]-3-(7-{[(2R)-2-ethyl-7-hydroxy-2,3-dihydropyrido[2,3-f][1,4]oxazepin-4(5H)-yl]methyl}-1-benzothiophen-5-yl)propanoic acid] are not above 0.01 µM and more than 5.
Turning to `CC[C@@H]1CN(Cc2cc([C@@H](CC(=O)O)c3cc(OC(F)F)c4c(nnn4C)c3C)cc3ccsc23)Cc2nc(O)ccc2O1` [Example 43, (3R)-3-[7-(Difluoromethoxy)-1,4-dimethyl-1H-benzotriazol-5-yl]-3-(7-{[(2R)-2-ethyl-7-hydroxy-2,3-dihydropyrido[2,3-f][1,4]oxazepin-4(5H)-yl]methyl}-1-benzothiophen-5-yl)propanoic acid], the IC50 in assay [1] is 0.01 to 0.03 µM. In assay [2], the fold induction at 0.4 µM is more than 5.
On the same counts, the results for `CC[C@@H]1CN(Cc2cc([C@H](CC(=O)O)c3cc(OC(F)F)c4c(nnn4C)c3C)cc3ccsc23)Cc2nc(O)ccc2O1` [Example 44, (3S)-3-[7-(Difluoromethoxy)-1,4-dimethyl-1H-benzotriazol-5-yl]-3-(7-{[(2R)-2-ethyl-7-hydroxy-2,3-dihydropyrido[2,3-f][1,4]oxazepin-4(5H)-yl]methyl}-1-benzothiophen-5-yl)propanoic acid] are not above 0.01 µM and more than 5.
In assay [1], `Cc1c([C@H](CC(=O)O)c2cc(CN3Cc4nc(O)ccc4O[C@H](C(C)(F)F)C3)c3sccc3c2)ccc2c1nnn2C` [Example 45, (3R)-3-(7-{[(2S)-2-(1,1-Difluoroethyl)-7-hydroxy-2,3-dihydropyrido[2,3-f][1,4]oxazepin-4(5H)-yl]methyl}-1-benzothiophen-5-yl)-3-(1,4-dimethyl-1H-benzotriazol-5-yl)propanoic acid] showed an IC50 of 0.01 to 0.03 µM. Moreover, in assay [2], the fold induction at 0.4 µM was more than 5.
Taken in the same sequence, the figures for `Cc1c([C@H](CC(=O)O)c2cc(CN3Cc4nc(O)ccc4O[C@H](C(F)(F)F)C3)c3sccc3c2)cnc2c1nnn2C` [Example 46, (3R)-3-(3,7-Dimethyl-3H-[1,2,3]triazolo[4,5-b]pyridin-6-yl)-3-(7-{[(2S)-7-hydroxy-2-(trifluoromethyl)-2,3-dihydropyrido[2,3-f][1,4]oxazepin-4(5H)-yl]methyl}-1-benzothiophen-5-yl)propanoic acid] were not above 0.01 µM and 3 to 5.
For the compound `Cc1c([C@@H](c2cc(CN3Cc4nc(O)ccc4OC4(CC4)C3)c3sccc3c2)C(C)(C)C(=O)O)ccc2c1nnn2C` [Example 47, (3R)-3-(1,4-Dimethyl-1H-benzotriazol-5-yl)-3-{7-[(7′-hydroxy-3′H-spiro[cyclopropane-1,2′-pyrido[2,3-f][1,4]oxazepin]-4′ (5′H)-yl)methyl]-1-benzothiophen-5-yl}-2,2-dimethylpropanoic acid], the half-inhibitory concentration (IC50) in assay [1] was in the range of 0.3 to 3 µM. In assay [2], the fold induction at 0.4 µM fell in the range of 1.5 to 3.
On to `CC[C@@H]1CN(Cc2cc([C@@H](c3cnc4c(nnn4C)c3C)C(C)(C)C(=O)O)cc3ccsc23)Cc2nc(O)ccc2O1` [Example 48, (3S)-3-(3,7-Dimethyl-3H-[1,2,3]triazolo[4,5-b]pyridin-6-yl)-3-(7-{[(2R)-2-ethyl-7-hydroxy-2,3-dihydropyrido[2,3-f][1,4]oxazepin-4(5H)-yl]methyl}-1-benzothiophen-5-yl)-2,2-dimethylpropanoic acid], for which, in assay [1], the half-inhibitory concentration (IC50) is 0.01 to 0.03 µM. The fold induction at 0.4 µM in assay [2] was more than 5.
`CC[C@@H]1CN(Cc2cc([C@H](c3cnc4c(nnn4C)c3C)C(C)(C)C(=O)O)cc3ccsc23)Cc2nc(O)ccc2O1` [Example 49, (3R)-3-(3,7-Dimethyl-3H-[1,2,3]triazolo[4,5-b]pyridin-6-yl)-3-(7-{[(2R)-2-ethyl-7-hydroxy-2,3-dihydropyrido[2,3-f][1,4]oxazepin-4(5H)-yl]methyl}-1-benzothiophen-5-yl)-2,2-dimethylpropanoic acid] gave an IC50 in assay [1] of 0.3 to 3 µM. Besides, the fold induction at 0.4 µM in assay [2] lay in the range of 3 to 5.
Regarding `Cc1c([C@H](c2cc(CN3Cc4nc(O)ccc4OC4(CC4)C3)c3sccc3c2)C(C)(C)C(=O)O)cnc2c1nnn2C` [Example 50, (3S)-3-(3,7-Dimethyl-3H-[1,2,3]triazolo[4,5-b]pyridin-6-yl)-3-{7-[(7′-hydroxy-3′H-spiro[cyclopropane-1,2′-pyrido[2,3-f][1,4]oxazepin]-4′(5′H)-yl)methyl]-1-benzothiophen-5-yl}-2,2-dimethylpropanoic acid], in assay [1], the IC50 fell in the range of 0.01 to 0.03 µM. Moreover, the fold induction at 0.4 µM in assay [2] was more than 5.
On the same counts, the results for `Cc1c([C@H](c2cc(CN3Cc4nc(O)ccc4O[C@H](C4CC4)C3)c3sccc3c2)C(C)(C)C(=O)O)cnc2c1nnn2C` [Example 51, (3S)-3-(7-{[(2R)-2-Cyclopropyl-7-hydroxy-2,3-dihydropyrido[2,3-f][1,4]oxazepin-4(5H)-yl]methyl}-1-benzothiophen-5-yl)-3-(3,7-dimethyl-3H-[1,2,3]triazolo[4,5-b]pyridin-6-yl)-2,2-dimethylpropanoic acid] are 0.01 to 0.03 µM and more than 5.
Compound `Cc1c(C(CC(=O)O)c2cc(CN3Cc4nc(O)ccc4OC4(CC4)C3)c3sccc3c2)ccn2c(C)nnc12` (centres unmarked) [Example 54, 3-(3,8-Dimethyl[1,2,4]triazolo[4,3-a]pyridin-7-yl)-3-{7-[(7′-hydroxy-3′H-spiro[cyclopropane-1,2′-pyrido[2,3-f][1,4]oxazepin]-4′(5′H)-yl)methyl]-1-benzothiophen-5-yl}propanoic acid] came in with an IC50 in assay [1] of 0.01 to 0.03 µM. Also, the fold induction at 0.4 µM in assay [2] was in the range of 3 to 5.
For the compound `CC[C@@H]1CN(Cc2cc([C@@H](CC(=O)O)c3ccc4c(nnn4C)c3C)cc3ccsc23)Cc2nc(N)ccc2O1` [Example 55, (3R)-3-(7-{[(2R)-7-Amino-2-ethyl-2,3-dihydropyrido[2,3-f][1,4]oxazepin-4(5H)-yl]methyl}-1-benzothiophen-5-yl)-3-(1,4-dimethyl-1H-benzotriazol-5-yl)propanoic acid], the IC50 in assay [1] was not above 0.01 µM. Moreover, the fold induction at 0.4 µM in assay [2] was more than 5.
Taken in the same sequence, the figures for `CC[C@@H]1CN(Cc2cc([C@H](CC(=O)O)c3ccc4c(nnn4C)c3C)cc3ccsc23)Cc2nc(N)ccc2O1` [Example 56, (3S)-3-(7-{[(2R)-7-Amino-2-ethyl-2,3-dihydropyrido[2,3-f][1,4]oxazepin-4(5H)-yl]methyl}-1-benzothiophen-5-yl)-3-(1,4-dimethyl-1H-benzotriazol-5-yl)propanoic acid] were not above 0.01 µM and more than 5.
Taken in the same sequence, the figures for `CC[C@@H]1CN(Cc2cc(C(CC(=O)O)c3ccc4c(nnn4C)c3C)cc3ccsc23)Cc2nc(F)ccc2O1` (stereo partly drawn) [Example 57, 3-(1,4-Dimethyl-1H-benzotriazol-5-yl)-3-(7-{[(2R)-2-ethyl-7-fluoro-2,3-dihydropyrido[2,3-f][1,4]oxazepin-4(5H)-yl]methyl}-1-benzothiophen-5-yl)propanoic acid] were 0.01 to 0.03 µM and more than 5.
On the same counts, the results for `CC[C@@H]1CN(Cc2cc(C(CC(=O)O)c3ccc4c(nnn4CCCS(C)(=O)=O)c3C)cc3ccsc23)Cc2nc(O)ccc2O1` (stereo partly drawn) [Example 62, 3-(7-{[(2R)-2-Ethyl-7-hydroxy-2,3-dihydropyrido[2,3-f][1,4]oxazepin-4(5H)-yl]methyl}-1-benzothiophen-5-yl)-3-{4-methyl-1-[3-(methylsulfonyl)propyl]-1H-benzotriazol-5-yl}propanoic acid] are 0.01 to 0.03 µM and more than 5.
